Assay results taken from EP0777471B1, “INHIBITION OF LEUKOTRIENE BIOSYNTHESIS WITH UREA DERIVATIVES” (MINNESOTA MINING AND MANUFACTURING COMPANY, priority 1994, dated 1996).
pIC50: −log10 of the molar value. “And” between values parts separate entries of the source, which are not always exact repeats. Equal values may be shown once. Read-outs that look alike come from different tables or passages of the source.

Legend:
[1] = test system: production of Leukotriene B4 (LTB4); experiment: Dog ex vivo Leukotriene B4 inhibition (oral dosing, blood challenged with calcium ionophore); format: in vivo, beagle dogs; settings: each entry one dog, negative = stimulation of LTB4 production; for % Inhibition 6 hour: 6 hour post dose; for inhibition at 5 mg/kg: Canis lupus familiaris, po
Experimental: The test method described below measures the ability of a compound when administered orally to dogs to inhibit the production of Leukotriene B4 (LTB4) in their blood which is drawn and challenged at selected time points.
The test is conducted in beagle dogs (male and female; about 10 Kg). Prior to starting, the neck area of the beagle is shaved to allow easy access to the jugular vein. A 3-4 mL sample of blood is drawn from the jugular vein into a heparinized vacutainer. The dog is then dosed using a tube long enough to reach its stomach. The compound is dissolved in PEG 400 at a concentration such that the appropriate dose can be administered in approximately 5 mL. Immediately after the compound is given, a flush using 5 mL of vehicle is given to rinse the dosing tube. At selected time points following the dose, a 3-4 mL sample of blood is drawn.
The blood samples that have been drawn are challenged as soon as possible. A 0.5 mL portion of blood is aliquoted into 3 tubes (1 mL microtiter tubes). A 1 µL portion of 25 mM calcium ionophore in dimethyl sulfoxide is added to 2 of the tubes. A 1 µL portion of dimethyl sulfoxide is added to the third tube. The tubes are lightly mixed then placed in a 37°C water bath for 30 minutes. The tubes are centrifuged at 11,000 rpm for 3 minutes and the plasma supernatant is transferred to clean tubes. A 50 µL portion of this plasma is added to a I mL microtiter tube containing 200 µL of methanol. The tubes are placed in the freezer at -20°C for at least 1 hour then centrifuged at 2000 rpm for 10 minutes. A 10 µL portion of the methanol supematant is dried under vacuum at ambient temperature and then reconstituted in LTB4 buffer. The amount of LTB4 in the sample is determined by radioimmunoassay performed according to the manufacturer's (Advanced Magnetics; Cambridge, MA) instructions. Percent inhibition values are obtained by comparing the level of LTB4 in the post-dose sample to the level in the pre-dose sample according to the equation below. % Inhibition =((LTB4 predose) - (LTB4 postdose))/((LTB4 predose))X 100 [formula]
A number of the compounds that are useful in the practice of the method of the invention were tested. The results are shown in Table 15 below where each entry represents the results from one dog. A negative number indicates stimulation of LTB4 production. All compounds were tested at a dose of 5 mg/Kg.

[2] = test system: production of Leukotriene C4 in mouse peritoneal macrophages; experiment: In vitro mouse peritoneal macrophage Leukotriene C4 inhibition (zymosan-stimulated, LTC4 radioimmunoassay); format: cell-based; settings: Zymosan 50 µg/mL
Experimental: The test method described below measures the ability of compounds to inhibit the production of Leukotriene C4 in mouse peritoneal macrophages.
Mice (female, CD-1, weighing 25 g) are euthanized by exposure to carbon dioxide. The peritoneal cavity is exposed by peeling back the abdominal skin. A 5 mL portion of media (M199 containing 1% fetal bovine serum, 100 units/mL of penicillin, 100 µg/mL of streptomycin, 20 units/mL of heparin and no glutamine) is injected into the exposed peritoneal cavity of each mouse. The lavage fluid is removed and pooled to yield approximately1 X 10^6 macrophages/mL. A 2 mL portion of lavage fluid is added to each well of a 24 well sterile multidish and the macrophages are allowed to adhere to the plate for 2 hours at 37°C in a 5% carbon dioxide atmosphere. The media is removed and each well is washed with 2 mL of phosphate buffered saline (PBS). A 1 mL portion of media, without heparin, but containing 5 µCi/mL of 3H-myoinositol is added to each well and the plates are incubated overnight at 37°C in a 5% carbon dioxide atmosphere. The media is removed and the cells are washed twice with 2 mL portions of PBS. A 1 mL portion of Puck's saline formulation A containing 1 mM calcium chloride, 1 mM magnesium chloride and 10 mM lithium chloride is added to each well. (The Puck's formulation is made first as a 10X solution which contains 4 g of potassium chloride, 80 g of sodium chloride and 10 g of glucose per liter. The Puck's saline formulation A is made using 10 mL of the 10X Puck's formulation, 0.47 mL of 7.5% sodium bicarbonate and 2 mL of 1M N-2-hydroxyethylpiperazine-N'-2-ethanesulfonic acid per 100 mL.)
Compounds are dissolved in dimethyl sulfoxide. Compounds are tested at concentrations of 10, 1 and 0.1 µM. Each concentration is tested in duplicate.
A 1 µL portion of compound solution or vehicle (DMSO) is added to each well and the plates are incubated for 15 minutes at 37°C in a 5% carbon dioxide atmosphere. Zymosan is then added to provide a final concentration of 50 µg/mL in each well and the plate is incubated for 1 to 2 hours at 37°C in a 5% carbon dioxide atmosphere.
Following incubation 200 µL portions of media are transferred to 12 X 75 mm tubes. The tubes are either assayed immediately or stored at -20°C until they can be assayed.
The media is assayed for the presence of Leukotriene C4 by radioimmunoassay which is performed according to the manufacturer's (Advanced Magnetics; Cambridge, MA) instructions.

5-lipoxygenase = target: T1, 5-lipoxygenase (Homo sapiens, UniProt P09917); experiment: 5-Lipoxygenase inhibition in human leukocytes (A23187-stimulated, LTC4 radioimmunoassay); format: cell-based; settings: human leukocytes, A23187 Calcium Ionophore, LTC4 formed; read-out: IC50
T1 construct: Whole human blood is collected by venipuncture into EDTA; endogenous in cells; host or cells: leukocytes isolated from whole human blood (dextran sedimentation, hypotonic lysis)
T1 sequence (P09917 1-674): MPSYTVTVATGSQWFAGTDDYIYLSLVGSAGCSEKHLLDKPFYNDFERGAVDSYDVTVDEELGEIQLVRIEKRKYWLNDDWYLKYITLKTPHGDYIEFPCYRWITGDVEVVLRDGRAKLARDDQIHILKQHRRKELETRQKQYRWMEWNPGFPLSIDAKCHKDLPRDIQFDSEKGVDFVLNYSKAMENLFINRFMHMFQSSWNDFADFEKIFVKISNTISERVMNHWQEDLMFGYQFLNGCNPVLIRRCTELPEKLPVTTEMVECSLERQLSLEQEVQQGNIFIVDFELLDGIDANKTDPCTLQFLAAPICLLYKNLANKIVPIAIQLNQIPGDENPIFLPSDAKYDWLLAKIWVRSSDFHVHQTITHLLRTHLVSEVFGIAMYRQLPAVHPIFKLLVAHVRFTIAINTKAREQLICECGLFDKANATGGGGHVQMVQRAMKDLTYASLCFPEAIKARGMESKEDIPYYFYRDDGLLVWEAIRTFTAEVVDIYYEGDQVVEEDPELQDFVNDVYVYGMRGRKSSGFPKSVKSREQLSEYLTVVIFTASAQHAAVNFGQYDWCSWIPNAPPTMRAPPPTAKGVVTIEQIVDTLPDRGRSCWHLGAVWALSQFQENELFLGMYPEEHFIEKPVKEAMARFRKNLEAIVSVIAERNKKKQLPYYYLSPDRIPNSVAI
Experimental: The test method described below measures the ability of compounds to inhibit 5-lipoxygenase activity in human leukocytes.
Whole human blood is collected by venipuncture into EDTA (1.4 mL of 0.25M per 60 mL of whole blood). The red blood cells are sedimented with a 6% dextran/0.9% sodium chloride solution at a ratio of 25 mL whole blood to 15 mL dextran solution. The blood/dextran combination is mixed by inversion and the red blood cells are allowed to settle out for 45 minutes at ambient temperature. The plasma/dextran supernatant is removed then centrifuged at ambient temperature at 3000 rpm for 10 minutes. The plasma/dextran supernatant is removed and the cells are resuspended in 10 mL of the plasma/dextran solution. […] The pellet is then resuspended into Tris buffer containing 1 mM calcium chloride to provide approximately 1.0 X 10^7 cells/mL.
Compounds are dissolved in dimethyl sulfoxide. […] Each concentration is tested in duplicate.
A 15 µL portion of Tris buffer containing 1 mM calcium chloride is added to each well of a 96 well microtiter plate. A 1 µL portion of drug solution or vehicle (dimethyl sulfoxide) is added to each well followed by the addition of an 75 µL portion of the cell suspension. The plates are gently mixed then allowed to stand at ambient temperature for 10 minutes. A 10 µL portion of 30 µM A23187 Calcium Ionophore (prepared by dissolving the ionophore in DMSO and then diluting 1:80 into the Tris buffer) is added to each well except the wells that contain the blanks (The blank wells measure the level of LTC4 production in the absence of A23187.). The plates are gently mixed then incubated at 37°C for 10 minutes.
Following incubation the plates are centrifuged at 2000 rpm for 1.5 minutes and the supernatant is removed as quickly as possible to stop the reaction. The supernatants are frozen at -20°C until they are assayed.
The supernatants are assayed for the presence of Leukotriene C4 by radioimmunoassay which is performed according to the manufacturer's (Advanced Magnetics; Cambridge, MA) instructions.

[3] = test system: production of Leukotriene B4; experiment: Rat ex vivo Leukotriene B4 inhibition (oral dosing, blood challenged with A23187); format: in vivo, Rats; settings: two hours post dose
Experimental: The test method described below measures the ability of a compound when administered orally to rats to inhibit the production of Leukotriene B4 in their blood which is drawn and challenged.
Rats (CD, male, non-fasted, 250 g) are lightly anesthetized with carbon dioxide and an approximately 0.75 mL sample of whole blood is obtained via cardiac puncture. The sample is dispensed into 12 X 75 mm polypropylene tubes containing 8-10 µL of 10,000 units/mL heparin, mixed and then maintained on ice. The rats are allowed to recover approximately one hour then dosed orally with compound dissolved in PEG 400 at a 5 mL/Kg volume. Five (5) rats are utilized per group. Two (2) hours post dose the rats are again anesthetized with carbon dioxide and the blood sampled again via cardiac puncture.
Duplicate 200 µL portions of blood are added to 1.0 mL polypropylene tubes. A 10 µL portion of 1mM A23187 Calcium Ionophore in dimethyl sulfoxide/Tris buffer is added to each tube. The tubes are gently vortexed then incubated in a 37°C water bath for 30 minutes. The tubes are then centrifuged at 4000 rpm for 10 minutes. 50 µL portions of plasma are transferred to 1.0 mL tubes containing 200 µL of methanol. The tubes are vortexed then placed in the freezer overnight.
The tubes are removed from the freezer then centrifuged at 4000 rpm for 10 minutes. […] portions of the methanol/plasma supernatant and 10 µL methanol dilutions of LTB4 standard curve are transferred to 96 well v-bottom microtiter plates. The plates are vacuum dried at 40°C. A 40 µL portion of LTB4 radioimmunoassay buffer is added to each well. The plate is bath sonicated for 5 minutes then assayed according to the manufacturer's (Advanced Magnetics; Cambridge, MA) instructions. Percent inhibition values are obtained by comparing the level of LTB4 in the post-dose samples to the level in the pre-dose samples according to the equation below. % Inhibition =((LTB4 pre-dose) - (LTB4 post-dose))/((LTB4 pre-dose))X 100 [formula]

[4] = 1 h, 1 hour post dose, read-out: % Inhibition 1 hour
[5] = 2 h, 2 hour post dose, read-out: % Inhibition 2 hour

| pIC50 [2] | pIC50 (5-lipoxygenase) | SMILES | % Inhibition 2 hour ([1]; 5 mg/Kg, 2 hour post dose) | % Inhibition 4 hour ([1]; 5 mg/Kg, 4 hour post dose) | % Inhibition 6 hour ([1]; 5 mg/Kg) | inhibition at 5 mg/kg [1, 4] [%] | other results |
| --- | --- | --- | --- | --- | --- | --- | --- |
| 7.00 | 8.70 | CSc1cccc(NC(=O)N(O)CC(C)C)c1 [Compound 58, 1-Hydroxy-1-(2-methylpropyl)-3-[3-(methylthio)phenyl]urea] | -21% and -35% | -43% and -63% | 8% and -34% | – | % Inhibition 1 hour ([1]; 5 mg/Kg, 1 hour post dose): 1% and -24% |
| < 5.00 | 6.34 | CSc1cccc(NC(=O)NO)c1 [Compound 34, 1-hydroxy-3-[3-(methylthio)phenyl]urea] | – | – | – | – | %I ([3]; 25 mg/Kg): -2.9% |
| – | 7.40 | CN(O)C(=O)Nc1cccc(OS(=O)(=O)C(F)(F)F)c1 [Compound 2, 1-hydroxy-1-methyl-3-[3-(trifluoromethylsulfonoxy)phenyl]urea] | – | – | – | – | – |
| – | 7.31 | CN(O)C(=O)Nc1ccc(F)cc1 [Compound 11, 3-(4-fluorophenyl)-1-hydroxy-1-methylurea] | – | 77% and 41% | -17% and 30% | 100 | %I ([3]; 20 mg/Kg): 26%; %I ([3]; 50 mg/Kg): 20%; inhibition at 5 mg/kg [1, 5]: 100% |
| 6.52 | 6.13 | COc1cccc(NC(=O)N(O)C(C)C)c1 [Compound 22, 1-hydroxy-3-(3-methoxyphenyl)-1-(1-methylethyl)urea] | 78% and -140% | – | – | 100 | – |
| – | 7.57 | CN(O)C(=O)Nc1cccc(SC(F)(F)F)c1 [Compound 4, 1-hydroxy-1-methyl-3-[3-(trifluoromethylthio)phenyl]urea] | – | – | – | – | – |
| – | 7.09 | CSc1cccc(NC(=O)N(C)O)c1 [Compound 3, 1-hydroxy-1-methyl-3-[3-(methylthio)phenyl]urea] | 99% | 95% | 51% and 84% | 100 | %I ([3]; 5 mg/Kg): 39%; inhibition at 5 mg/kg [1, 5]: 100%; inhibition at 5 mg/kg ([1]; 4 h, 4 hour post dose, read-out: % Inhibition 4 hour): 83% |
| – | 7.28 | CCCN(O)C(=O)Nc1ccccc1 [Compound 55, 1-hydroxy-3-phenyl-1-propylurea] | – | – | – | – | %I ([3]; 50 mg/Kg): 8% |
| – | 5.04 | COc1cccc(NC(=O)NO)c1 [Compound 33, 1-hydroxy-3-(3-methoxyphenyl)urea] | – | – | – | – | %I ([3]; 25 mg/Kg): 26% |
| < 6.00 | < 5.00 | Cc1cccc(C)c1NC(=O)N(O)C(C)C [Compound 26, 3-(2,6-dimethylphenyl)-1-hydroxy-1-(1-methylethyl)urea] | – | – | – | – | – |
